Experimental data reported in US10624875B2, “Methods and compositions for treating schizophrenia” (The Johns Hopkins University, priority 2012, dated 2020).

Tests used:
[1] = tested on: Age-Impaired (AI) Long-Evans rats; assay: Morris Water Maze (MWM) retention trial, spatial memory; format: in vivo, rat; details: retention trial 24 hours after two training days
Experimental: The MWM apparatus consists of a large, circular pool (diameter 1.83 m; height, 0.58 m) filled with water (27° C.) that is made opaque through the addition of non-toxic pigment or some other substance. In the typical “hidden platform” version of the test, rats are trained to find a camouflaged white escape platform (height, 34.5 cm) that is positioned in the center of one quadrant of the maze about 1.0 cm below the water surface. This platform can be retracted to the bottom of the tank or raised to its normal position from outside the maze during behavioral testing. The location of the platform remains constant from trial to trial. Because there are no local cues that mark the position of the platform, the rat's ability to locate it efficiently from any starting position at the perimeter of the pool depends on using information surrounding the maze. The maze is surrounded by black curtains to which white patterns are affixed to provide a configuration of spatial cues. A second platform (height 37.5 cm), with its surface painted black is elevated 2 cm above the water surface during cue training to control for factors unrelated to cognition. The behavior of a rat in the pool is recorded by a camera that is suspended 2.5 m above the center of the pool. […] At the completion of the protocol using the hidden platform, rats are assessed for cue learning using the visible platform. […]

[2] = tested on: entorhinal cortex (EC); assay: fMRI activity during explicit 3-alternative forced choice task, entorhinal cortex; format: in vivo, human; details: aMCI subjects, 125 mg twice a day for two weeks, versus placebo
Experimental: A within-subjects trial of 8 weeks duration, involving 17 amnestic MCI (aMCI) subjects and 17 age-matched controls with a low dose treatment of levetiracetam is conducted. During the course of the study, each aMCI subject receives both drug and placebo treatments separately in two periods of two weeks each, with the order of treatments among different aMCI subjects counterbalanced (see FIG. 7). Age-matched control subjects treated with placebo serve as a further control. Cognitive testing and fMRI imaging data are obtained from the subjects after each two week period of drug/placebo treatment. As described above, the drug treatment period is the two weeks preceding Visit 1 or 2 (with the two week period preceding the other Visit being the placebo phase). […] Imaging data are obtained through high-resolution methods developed in the Stark laboratory. Data are collected on a Phillips 3 Tesla scanner (Eindhoven, The Netherlands) equipped with an 8-channel SENSE (Sensitivity Encoding) head coil, located at the F.M. Kirby Research Center for Functional Brain Imaging at the Kennedy Krieger Institute (Baltimore, Md.). […] Group data are analyzed using a two-way Analysis of Variance (ANOVA) with trial types and group as fixed factors, and subject as a random factor nested within group. […]

For `CC[C@@H](C(N)=O)N1CCCC1=O` [levetiracetam, (2S)-2-(2-oxopyrrolidin-1-yl) butanamide], the “time spent in the target quadrant versus vehicle-treated controls” value ([1]; 5 mg/kg/day i.p.) was “did not significantly improve”, the “time spent in the target annulus” value ([1]; 10 mg/kg/day i.p.) was “effectiveness of the 10 mg/kg/day levetiracetam treatment was also seen” and the “EC activity during memory judgments” value [2] was “increases EC activity”.
